Assays:
Assay in all cases: kinome screen (33PanQinase)
Assay type in all cases: biochemical
IKKα = molecular target: T1, IKKα (Homo sapiens, UniProt O15111)
T1 construct: purchased Reaction Biology Europe GmbH (formerly ProQinase)
T1 sequence (O15111 1-745): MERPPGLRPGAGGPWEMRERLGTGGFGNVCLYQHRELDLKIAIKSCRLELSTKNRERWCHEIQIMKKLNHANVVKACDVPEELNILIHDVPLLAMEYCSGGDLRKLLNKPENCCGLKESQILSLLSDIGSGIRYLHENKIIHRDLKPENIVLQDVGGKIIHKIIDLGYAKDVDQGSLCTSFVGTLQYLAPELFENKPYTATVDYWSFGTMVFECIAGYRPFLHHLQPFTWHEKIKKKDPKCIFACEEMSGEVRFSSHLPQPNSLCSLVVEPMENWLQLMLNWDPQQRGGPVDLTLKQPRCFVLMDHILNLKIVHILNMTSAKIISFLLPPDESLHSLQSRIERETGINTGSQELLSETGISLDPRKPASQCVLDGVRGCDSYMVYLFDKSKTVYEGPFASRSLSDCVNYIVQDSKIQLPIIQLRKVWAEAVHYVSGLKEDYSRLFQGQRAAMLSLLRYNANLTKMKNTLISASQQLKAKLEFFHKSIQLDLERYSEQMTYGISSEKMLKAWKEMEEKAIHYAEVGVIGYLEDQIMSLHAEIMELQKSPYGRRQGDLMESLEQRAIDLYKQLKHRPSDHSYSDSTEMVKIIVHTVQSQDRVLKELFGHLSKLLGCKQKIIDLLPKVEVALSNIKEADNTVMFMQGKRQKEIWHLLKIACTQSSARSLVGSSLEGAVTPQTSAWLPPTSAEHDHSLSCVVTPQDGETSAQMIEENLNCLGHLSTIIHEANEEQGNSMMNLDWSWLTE
Description: (§1) The Kinome Screening was performed by Reaction Biology Europe GmbH (http://reactionbiology.com; Freiburg i. Br., Germany).

AMPKα1 = molecular target: T2, AMPKα1 (Homo sapiens, UniProt Q13131)
T2 construct: purchased Reaction Biology Europe GmbH (formerly ProQinase)
Description: as §1

MST3 = molecular target: T3, MST3 (Homo sapiens, UniProt Q9Y6E0)
T3 construct: purchased Reaction Biology Europe GmbH (formerly ProQinase)
Description: as §1

ROS = molecular target: T4, ROS (Homo sapiens, UniProt P08922)
T4 construct: purchased Reaction Biology Europe GmbH (formerly ProQinase)
Description: as §1

ERK2 = molecular target: T5, ERK2 (Homo sapiens, UniProt P28482)
T5 construct: purchased Reaction Biology Europe GmbH (formerly ProQinase)
Description: as §1

CDK2/CycD1 = molecular target: T6, CDK2/CycD1 (Homo sapiens, UniProt P24941)
T6 construct: purchased Reaction Biology Europe GmbH (formerly ProQinase)
Description: as §1

KIT = molecular target: T7, KIT (Homo sapiens, UniProt P10721)
T7 construct: purchased Reaction Biology Europe GmbH (formerly ProQinase)
Description: as §1

CDK1/CycE1 = molecular target: T8, CDK1/CycE1 (Homo sapiens, UniProt P06493)
T8 construct: purchased Reaction Biology Europe GmbH (formerly ProQinase)
Description: as §1

MTOR = molecular target: T9, MTOR (Homo sapiens, UniProt P42345)
T9 construct: purchased Reaction Biology Europe GmbH (formerly ProQinase)
Description: as §1

CDK7/CycH/MAT1 = molecular target: T10, CDK7/CycH/MAT1 (Homo sapiens, UniProt P50613)
T10 construct: purchased Reaction Biology Europe GmbH (formerly ProQinase)
Description: as §1

ULK2 = molecular target: T11, ULK2 (Homo sapiens, UniProt Q8IYT8)
T11 construct: purchased Reaction Biology Europe GmbH (formerly ProQinase)
T11 sequence (Q8IYT8 1-1036): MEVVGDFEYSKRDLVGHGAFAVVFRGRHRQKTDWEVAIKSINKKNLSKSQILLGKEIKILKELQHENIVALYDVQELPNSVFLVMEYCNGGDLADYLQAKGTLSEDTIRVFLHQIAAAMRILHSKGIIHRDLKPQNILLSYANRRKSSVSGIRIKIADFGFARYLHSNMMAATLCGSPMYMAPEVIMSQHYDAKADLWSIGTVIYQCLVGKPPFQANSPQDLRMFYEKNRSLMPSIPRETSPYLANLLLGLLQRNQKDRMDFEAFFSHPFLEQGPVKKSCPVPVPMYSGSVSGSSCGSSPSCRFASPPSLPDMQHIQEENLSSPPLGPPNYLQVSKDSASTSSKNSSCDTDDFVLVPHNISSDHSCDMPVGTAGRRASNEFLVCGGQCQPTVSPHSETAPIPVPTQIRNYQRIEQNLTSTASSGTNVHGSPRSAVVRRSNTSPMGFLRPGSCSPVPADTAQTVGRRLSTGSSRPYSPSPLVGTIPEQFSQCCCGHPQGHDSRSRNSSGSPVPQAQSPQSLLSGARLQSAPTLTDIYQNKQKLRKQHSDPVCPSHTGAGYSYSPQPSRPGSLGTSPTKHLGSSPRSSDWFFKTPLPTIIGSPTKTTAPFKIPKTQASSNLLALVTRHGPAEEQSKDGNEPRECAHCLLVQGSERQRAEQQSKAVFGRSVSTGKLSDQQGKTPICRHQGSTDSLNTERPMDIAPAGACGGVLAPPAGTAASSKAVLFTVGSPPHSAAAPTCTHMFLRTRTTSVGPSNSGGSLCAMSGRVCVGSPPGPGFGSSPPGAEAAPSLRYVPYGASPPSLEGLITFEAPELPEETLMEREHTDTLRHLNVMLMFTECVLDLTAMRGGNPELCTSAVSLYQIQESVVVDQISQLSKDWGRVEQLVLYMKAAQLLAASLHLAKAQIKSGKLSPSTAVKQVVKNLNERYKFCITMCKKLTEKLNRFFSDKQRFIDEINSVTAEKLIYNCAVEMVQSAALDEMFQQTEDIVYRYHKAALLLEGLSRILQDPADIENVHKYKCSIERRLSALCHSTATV
Description: as §1

RPS6KA4 = molecular target: T12, RPS6KA4 (Homo sapiens, UniProt O75676)
T12 construct: purchased Reaction Biology Europe GmbH (formerly ProQinase)
Description: as §1

T4 sequence (P08922 28-2347): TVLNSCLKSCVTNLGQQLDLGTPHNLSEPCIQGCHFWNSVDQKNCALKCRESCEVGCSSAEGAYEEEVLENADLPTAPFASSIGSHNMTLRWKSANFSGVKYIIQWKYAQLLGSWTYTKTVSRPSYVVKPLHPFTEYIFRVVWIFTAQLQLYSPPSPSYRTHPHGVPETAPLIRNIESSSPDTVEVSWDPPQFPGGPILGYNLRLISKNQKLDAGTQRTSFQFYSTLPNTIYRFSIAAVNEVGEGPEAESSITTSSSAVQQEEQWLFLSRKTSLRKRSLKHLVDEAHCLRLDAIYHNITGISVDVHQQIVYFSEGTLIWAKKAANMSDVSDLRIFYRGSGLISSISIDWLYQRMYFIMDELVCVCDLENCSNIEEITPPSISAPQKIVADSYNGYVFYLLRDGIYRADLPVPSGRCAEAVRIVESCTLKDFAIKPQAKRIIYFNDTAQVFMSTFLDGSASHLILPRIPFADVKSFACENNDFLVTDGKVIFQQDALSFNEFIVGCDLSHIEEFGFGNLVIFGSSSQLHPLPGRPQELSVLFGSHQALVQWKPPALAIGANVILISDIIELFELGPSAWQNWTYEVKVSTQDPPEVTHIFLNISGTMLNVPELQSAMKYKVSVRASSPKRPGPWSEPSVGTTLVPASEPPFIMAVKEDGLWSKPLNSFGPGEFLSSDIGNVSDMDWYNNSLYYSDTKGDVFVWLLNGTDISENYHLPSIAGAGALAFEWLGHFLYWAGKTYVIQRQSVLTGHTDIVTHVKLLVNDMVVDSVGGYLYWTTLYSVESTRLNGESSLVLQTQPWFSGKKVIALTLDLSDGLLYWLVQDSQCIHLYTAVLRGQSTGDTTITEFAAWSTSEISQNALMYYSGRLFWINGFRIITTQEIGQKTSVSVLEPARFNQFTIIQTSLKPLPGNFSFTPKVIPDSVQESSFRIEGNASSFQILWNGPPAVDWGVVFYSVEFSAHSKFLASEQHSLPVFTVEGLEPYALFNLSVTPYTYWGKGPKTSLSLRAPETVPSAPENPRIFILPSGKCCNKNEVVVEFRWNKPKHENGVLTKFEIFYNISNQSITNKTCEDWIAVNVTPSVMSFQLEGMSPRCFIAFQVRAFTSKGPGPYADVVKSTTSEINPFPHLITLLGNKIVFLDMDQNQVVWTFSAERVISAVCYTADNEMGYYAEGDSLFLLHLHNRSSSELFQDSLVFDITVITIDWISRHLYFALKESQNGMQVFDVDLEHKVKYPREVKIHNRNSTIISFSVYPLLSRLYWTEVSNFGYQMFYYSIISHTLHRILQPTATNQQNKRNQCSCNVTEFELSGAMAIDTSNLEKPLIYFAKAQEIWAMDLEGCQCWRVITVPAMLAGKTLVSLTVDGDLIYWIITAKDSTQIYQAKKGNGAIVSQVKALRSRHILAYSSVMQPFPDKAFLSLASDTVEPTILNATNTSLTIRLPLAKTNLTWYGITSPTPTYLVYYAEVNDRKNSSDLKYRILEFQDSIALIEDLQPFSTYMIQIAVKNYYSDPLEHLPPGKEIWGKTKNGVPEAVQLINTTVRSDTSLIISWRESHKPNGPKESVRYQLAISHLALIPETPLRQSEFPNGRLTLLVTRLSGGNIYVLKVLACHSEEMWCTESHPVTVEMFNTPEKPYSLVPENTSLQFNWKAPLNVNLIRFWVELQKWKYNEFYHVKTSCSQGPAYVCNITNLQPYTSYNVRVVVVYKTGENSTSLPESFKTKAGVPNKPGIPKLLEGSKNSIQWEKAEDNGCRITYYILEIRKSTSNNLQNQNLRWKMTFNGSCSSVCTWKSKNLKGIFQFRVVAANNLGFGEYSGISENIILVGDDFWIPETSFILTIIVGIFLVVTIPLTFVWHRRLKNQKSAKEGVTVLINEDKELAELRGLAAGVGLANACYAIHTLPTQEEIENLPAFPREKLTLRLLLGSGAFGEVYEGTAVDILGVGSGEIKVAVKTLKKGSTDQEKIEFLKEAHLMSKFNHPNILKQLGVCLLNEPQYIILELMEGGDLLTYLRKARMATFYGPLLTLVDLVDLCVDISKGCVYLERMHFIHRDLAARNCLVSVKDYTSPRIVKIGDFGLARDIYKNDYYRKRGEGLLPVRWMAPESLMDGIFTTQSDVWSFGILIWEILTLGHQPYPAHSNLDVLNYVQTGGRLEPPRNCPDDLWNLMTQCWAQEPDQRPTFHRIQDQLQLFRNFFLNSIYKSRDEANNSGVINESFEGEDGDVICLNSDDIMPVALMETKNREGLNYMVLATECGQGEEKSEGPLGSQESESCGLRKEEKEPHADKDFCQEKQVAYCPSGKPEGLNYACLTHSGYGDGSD
T12 sequence (O75676 whole entry): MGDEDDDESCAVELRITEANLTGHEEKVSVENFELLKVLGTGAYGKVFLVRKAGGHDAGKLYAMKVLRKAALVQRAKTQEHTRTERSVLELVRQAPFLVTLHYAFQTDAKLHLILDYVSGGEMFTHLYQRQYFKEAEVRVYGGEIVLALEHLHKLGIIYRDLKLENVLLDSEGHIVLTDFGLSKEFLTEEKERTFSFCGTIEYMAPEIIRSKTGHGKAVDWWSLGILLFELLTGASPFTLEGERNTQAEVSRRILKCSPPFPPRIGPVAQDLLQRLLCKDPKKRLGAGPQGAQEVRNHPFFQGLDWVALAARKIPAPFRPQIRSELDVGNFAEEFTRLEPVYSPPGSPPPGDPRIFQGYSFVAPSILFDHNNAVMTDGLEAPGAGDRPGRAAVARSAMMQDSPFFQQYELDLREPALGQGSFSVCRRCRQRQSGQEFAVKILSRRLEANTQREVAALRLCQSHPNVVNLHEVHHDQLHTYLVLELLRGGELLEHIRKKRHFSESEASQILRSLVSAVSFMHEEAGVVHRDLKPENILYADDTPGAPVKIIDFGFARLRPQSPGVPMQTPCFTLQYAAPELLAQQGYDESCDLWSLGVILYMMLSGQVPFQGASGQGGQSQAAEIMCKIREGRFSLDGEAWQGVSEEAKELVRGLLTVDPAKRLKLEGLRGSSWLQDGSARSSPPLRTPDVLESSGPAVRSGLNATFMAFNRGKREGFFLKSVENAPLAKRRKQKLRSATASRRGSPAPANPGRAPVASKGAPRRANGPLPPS
T7 sequence (P10721 26-976): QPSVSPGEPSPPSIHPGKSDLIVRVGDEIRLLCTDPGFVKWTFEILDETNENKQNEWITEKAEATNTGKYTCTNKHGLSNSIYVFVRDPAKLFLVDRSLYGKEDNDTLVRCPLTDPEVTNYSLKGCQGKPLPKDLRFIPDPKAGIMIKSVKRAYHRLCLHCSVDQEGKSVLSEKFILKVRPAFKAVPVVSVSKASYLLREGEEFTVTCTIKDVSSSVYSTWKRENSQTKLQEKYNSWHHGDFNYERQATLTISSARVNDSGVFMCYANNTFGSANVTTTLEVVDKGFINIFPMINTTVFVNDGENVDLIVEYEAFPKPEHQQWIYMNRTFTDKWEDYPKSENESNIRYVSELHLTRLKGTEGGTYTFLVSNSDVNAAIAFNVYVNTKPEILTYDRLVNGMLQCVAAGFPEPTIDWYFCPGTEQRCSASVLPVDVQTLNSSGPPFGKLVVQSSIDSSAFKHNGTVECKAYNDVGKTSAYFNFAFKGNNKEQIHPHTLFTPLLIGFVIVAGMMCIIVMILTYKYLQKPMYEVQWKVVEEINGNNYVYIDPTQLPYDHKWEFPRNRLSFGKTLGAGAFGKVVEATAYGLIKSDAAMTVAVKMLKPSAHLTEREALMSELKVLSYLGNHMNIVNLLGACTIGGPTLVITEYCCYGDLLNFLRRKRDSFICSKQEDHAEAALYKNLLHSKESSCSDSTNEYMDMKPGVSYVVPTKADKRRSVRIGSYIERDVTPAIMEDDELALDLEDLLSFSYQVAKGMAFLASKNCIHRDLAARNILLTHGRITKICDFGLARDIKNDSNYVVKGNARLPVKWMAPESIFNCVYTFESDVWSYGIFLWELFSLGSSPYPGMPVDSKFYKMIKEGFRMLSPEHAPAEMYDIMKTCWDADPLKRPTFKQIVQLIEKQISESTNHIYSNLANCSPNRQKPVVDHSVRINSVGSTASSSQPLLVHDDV
T5 sequence (P28482 whole entry): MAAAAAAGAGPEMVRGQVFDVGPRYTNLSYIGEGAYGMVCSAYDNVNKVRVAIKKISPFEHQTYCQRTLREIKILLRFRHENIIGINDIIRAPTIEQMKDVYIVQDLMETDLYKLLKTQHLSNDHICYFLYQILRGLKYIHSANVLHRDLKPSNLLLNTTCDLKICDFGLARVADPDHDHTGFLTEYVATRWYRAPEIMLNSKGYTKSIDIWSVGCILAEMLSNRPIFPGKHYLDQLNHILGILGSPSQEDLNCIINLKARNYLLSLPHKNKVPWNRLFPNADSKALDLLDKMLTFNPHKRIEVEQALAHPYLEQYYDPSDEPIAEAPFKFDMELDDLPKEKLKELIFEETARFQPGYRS
T3 sequence (Q9Y6E0 whole entry): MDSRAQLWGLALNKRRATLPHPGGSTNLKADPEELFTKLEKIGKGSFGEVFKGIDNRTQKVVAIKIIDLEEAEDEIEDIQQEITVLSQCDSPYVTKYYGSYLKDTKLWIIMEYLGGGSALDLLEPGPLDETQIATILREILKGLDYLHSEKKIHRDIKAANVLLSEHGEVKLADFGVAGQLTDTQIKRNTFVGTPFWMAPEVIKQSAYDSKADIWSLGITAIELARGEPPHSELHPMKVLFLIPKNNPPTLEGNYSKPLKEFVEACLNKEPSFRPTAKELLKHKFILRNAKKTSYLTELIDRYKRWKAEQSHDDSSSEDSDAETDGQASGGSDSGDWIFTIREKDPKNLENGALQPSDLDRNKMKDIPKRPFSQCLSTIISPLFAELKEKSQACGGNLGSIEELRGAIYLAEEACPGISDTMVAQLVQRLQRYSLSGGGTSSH

Compound | residual kinase activity (IKKα; 0.3 µM) | residual kinase activity (AMPKα1; 0.3 µM) | residual kinase activity (MST3; 0.3 µM) | residual kinase activity (ROS; 0.3 µM) | residual kinase activity (ERK2; 0.3 µM) | residual kinase activity (CDK2/CycD1; 0.3 µM) | residual kinase activity (KIT; 0.3 µM) | residual kinase activity (CDK1/CycE1; 0.3 µM) | residual kinase activity (MTOR; 0.3 µM) | residual kinase activity (CDK7/CycH/MAT1; 0.3 µM) | residual kinase activity (ULK2; 0.3 µM) | residual kinase activity (RPS6KA4; 0.3 µM) | further results
COc1ccnc2[nH]cc(-c3cc(N)nc(N)c3)c12 [meriolin 16] | 16 % of control | 78 % of control | 91 % of control | 81 % of control | 87 % of control | 23 % of control | 96 % of control | 8 % of control | 105 % of control | 6 % of control | 54 % of control | 89 % of control | residual kinase activity (IKKα; 0.03 µM): 27 % of control; residual kinase activity (AMPKα1; 0.03 µM): 108 % of control; residual kinase activity (MST3; 0.03 µM): 101 % of control; residual kinase activity (ROS; 0.03 µM): 92 % of control; residual kinase activity (ERK2; 0.03 µM): 103 % of control; residual kinase activity (CDK2/CycD1; 0.03 µM): 54 % of control; residual kinase activity (KIT; 0.03 µM): 70 % of control; residual kinase activity (CDK1/CycE1; 0.03 µM): 42 % of control; residual kinase activity (MTOR; 0.03 µM): 91 % of control; residual kinase activity (CDK7/CycH/MAT1; 0.03 µM): 44 % of control; residual kinase activity (ULK2; 0.03 µM): 96 % of control; residual kinase activity (RPS6KA4; 0.03 µM): 90 % of control
c1ccc(CNc2cc(-c3c[nH]c4ncccc34)ccn2)cc1 [meriolin 36] | 37 % of control | 57 % of control | 71 % of control | 26 % of control | 79 % of control | 6 % of control | 89 % of control | 2 % of control | 78 % of control | 7 % of control | 82 % of control | 71 % of control | residual kinase activity (IKKα; 3 µM): 13 % of control; residual kinase activity (AMPKα1; 3 µM): 9 % of control; residual kinase activity (MST3; 3 µM): 32 % of control; residual kinase activity (ROS; 3 µM): 5 % of control; residual kinase activity (ERK2; 3 µM): 30 % of control; residual kinase activity (CDK2/CycD1; 3 µM): 5 % of control; residual kinase activity (KIT; 3 µM): 46 % of control; residual kinase activity (CDK1/CycE1; 3 µM): 0 % of control; residual kinase activity (MTOR; 3 µM): 24 % of control; residual kinase activity (CDK7/CycH/MAT1; 3 µM): 2 % of control; residual kinase activity (ULK2; 3 µM): 45 % of control; residual kinase activity (RPS6KA4; 3 µM): 29 % of control

Reference: publication PMC11167047 (Cell Death Discovery, 2024)
